Measured values: patent US10287252B2, “Inhibitors of tryptophan-2,3-dioxygenase or indoleamine-2,3-dioxygenase” (IOmet Pharma Ltd., priority 2014, dated 2019)

Assays:
IDO = IDO (Homo sapiens, UniProt P14902); assay: SKOV3 Kynurenine cell based assay; parameters: IDO expression was induced in the SKOV3 cells by the addition of 500 ng/ml IFN-γ; endogenous in cells; host or cells: SKOV3 (human ovarian adenocarcinoma), induced with IFN-γ; details: SKOV3 (human ovarian adenocarcinoma) cells, IDO induced by 500 ng/ml IFN-γ, 500 μM L-tryptophan, 48 hours; for IC50: read-out: SKOV3 Kynurenine cell based assay pIC50 (converted)
Chain of IDO (P14902 whole entry): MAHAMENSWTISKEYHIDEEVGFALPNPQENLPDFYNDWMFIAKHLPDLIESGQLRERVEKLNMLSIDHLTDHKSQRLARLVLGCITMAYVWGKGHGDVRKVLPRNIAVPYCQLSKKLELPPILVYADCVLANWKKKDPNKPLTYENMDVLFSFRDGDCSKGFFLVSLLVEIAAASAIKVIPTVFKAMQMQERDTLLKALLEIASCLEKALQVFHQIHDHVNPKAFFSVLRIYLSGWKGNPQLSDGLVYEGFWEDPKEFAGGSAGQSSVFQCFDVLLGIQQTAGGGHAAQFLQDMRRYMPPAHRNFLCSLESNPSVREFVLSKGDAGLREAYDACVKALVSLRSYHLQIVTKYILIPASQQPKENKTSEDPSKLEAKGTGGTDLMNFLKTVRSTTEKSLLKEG
Procedure: (§1) Exemplary compounds of the invention were prepared, and tested to determine their effect as TDO and/or IDO inhibitors. Two different assays were employed: 1. a cell-based assay for detecting the effect of test compounds on kynurenine production in two different cancer cell types. This assay utilised cancer cells which expressed either TDO or IDO and as such was used as a means of testing compound activity at these two enzymes in a cell-based context. 2. a TDO and IDO biochemical coupled assay which utilised recombinantly produced and purified TDO and IDO enzymes in combination with the enzyme formamidase. This coupled enzyme system allowed conversion of N-formylkynurenine produced by TDO or IDO activity to kynurenine which was then quantified by fluorescence following addition of Erhlich's Reagent The protocols for these are set out below.
(§2) Cell Based Assay for Detection of Kynurenine Produced by TDO and/or IDO
(§3) A172 (human glioblastoma) and SKOV3 (human ovarian adenocarcinoma) cells were seeded in a 96 well plate at 30,000 or 40,000 cells per well respectively in phenol red-free RPMI supplemented with 10% FCS, 2 mM L-glutamine and 500 μM L-tryptophan. IDO expression was induced in the SKOV3 cells by the addition of 500 ng/ml IFN-γ. Cells were incubated at 37° C. with or without the addition of test compound. After 48 hours, the cells were removed by centrifugation and Erhlich's reagent was added to the supernatant. The Erhlich's reagent was incubated for 5 minutes before the absorbance was read at 490 nm.

TDO = TDO (Homo sapiens, UniProt P48775); assay: A172 Kynurenine cell based assay; parameters: This assay utilised cancer cells which expressed either TDO or IDO; endogenous in cells; host or cells: A172 (human glioblastoma); details: A172 (human glioblastoma) cells, 500 μM L-tryptophan, 48 hours, kynurenine by Erhlich's reagent; for IC50: read-out: A172 Kynurenine cell based assay pIC50 (converted)
Chain of TDO (P48775 whole entry): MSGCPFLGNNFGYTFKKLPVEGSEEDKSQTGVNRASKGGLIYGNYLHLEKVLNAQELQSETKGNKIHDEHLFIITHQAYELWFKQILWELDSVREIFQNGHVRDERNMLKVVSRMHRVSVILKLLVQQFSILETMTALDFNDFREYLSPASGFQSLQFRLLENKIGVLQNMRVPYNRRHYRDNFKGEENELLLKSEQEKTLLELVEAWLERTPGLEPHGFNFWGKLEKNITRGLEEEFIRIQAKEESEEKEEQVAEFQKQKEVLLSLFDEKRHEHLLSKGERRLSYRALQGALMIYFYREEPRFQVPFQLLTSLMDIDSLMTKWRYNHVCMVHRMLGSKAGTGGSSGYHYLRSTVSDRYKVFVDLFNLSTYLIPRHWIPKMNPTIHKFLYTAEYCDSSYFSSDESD
Procedure: as §1, §2, §3

| SMILES | SKOV3 Kynurenine cell based assay pIC50 (IDO) | A172 Kynurenine cell based assay pIC50 (TDO) | IC50 (IDO) [µM] | IC50 (TDO) [µM] |
| --- | --- | --- | --- | --- |
| CC(C)CS(=O)(=O)N(c1cccc2cnccc12)S(=O)(=O)CC(C)C [Compound 5] | + (+ = pIC50 4.00-4.49) | +/− (+/− = pIC50 <4.00) |  |  |
| O=C(Nc1cccc2cnccc12)c1ccccc1 [Compound 7] | + (+ = pIC50 4.00-4.49) | +/− (+/− = pIC50 <4.00) |  |  |
| CN1CCOC(C(=O)Nc2cccc3cnccc23)C1 (stereo not drawn) [Compound 8] | ++ (++ = pIC50 4.50-5.49) | ++ (++ = pIC50 4.50-5.49) |  |  |
| Cc1ccc(S(=O)(=O)Nc2cccc3cnccc23)cc1 [Compound 10] | ++ (++ = pIC50 4.50-5.49) | +/− (+/− = pIC50 <4.00) |  |  |
| O=S(=O)(Nc1cccc2cnccc12)c1ccccc1Cl [Compound 11] | ++ (++ = pIC50 4.50-5.49) | ++ (++ = pIC50 4.50-5.49) |  |  |
| O=S(=O)(Nc1cccc2cnccc12)c1ccc(Cl)cc1 [Compound 12] | ++ (++ = pIC50 4.50-5.49) | ++ (++ = pIC50 4.50-5.49) |  |  |
| O=S(=O)(Nc1cccc2cnccc12)c1cccc(Cl)c1 [Compound 13] | ++ (++ = pIC50 4.50-5.49) | ++ (++ = pIC50 4.50-5.49) |  |  |
| CCCS(=O)(=O)Nc1cccc2cnccc12 [Compound 15] | +/− (+/− = pIC50 <4.00) | ++ (++ = pIC50 4.50-5.49) |  |  |
| Cc1cccc(S(=O)(=O)Nc2cccc3cnccc23)c1 [Compound 17] | ++ (++ = pIC50 4.50-5.49) | +++ (+++ = pIC50 ≥5.50) |  |  |
| COc1ccc(S(=O)(=O)Nc2cccc3cnccc23)cc1OC [Compound 18] | + (+ = pIC50 4.00-4.49) | +/− (+/− = pIC50 <4.00) |  |  |
| O=S(=O)(Nc1cccc2cnccc12)c1ccc2c(c1)OCCO2 [Compound 19] | +++ (+++ = pIC50 ≥5.50) | +++ (+++ = pIC50 ≥5.50) |  |  |
| O=S(=O)(Nc1cccc2cnccc12)c1ccc(-c2ccccc2)cc1 [Compound 20] | +++ (+++ = pIC50 ≥5.50) | +++ (+++ = pIC50 ≥5.50) |  |  |
| O=S(=O)(Nc1cccc2cnccc12)c1ccccc1F [Compound 21] | ++ (++ = pIC50 4.50-5.49) | ++ (++ = pIC50 4.50-5.49) |  |  |
| O=S(=O)(Nc1cccc2cnccc12)c1ccc(F)cc1 [Compound 22] | + (+ = pIC50 4.00-4.49) | +++ (+++ = pIC50 ≥5.50) |  |  |
| O=S(=O)(Nc1cccc2cnccc12)c1ccc(F)cc1F [Compound 23] | + (+ = pIC50 4.00-4.49) | +/− (+/− = pIC50 <4.00) |  |  |
| CC(=O)Nc1ccc(S(=O)(=O)Nc2cccc3cnccc23)cc1 [Compound 24] | ++ (++ = pIC50 4.50-5.49) | +/− (+/− = pIC50 <4.00) |  |  |
| O=S(=O)(Nc1cccc2cnccc12)c1cccc(OC(F)F)c1 [Compound 26] | ++ (++ = pIC50 4.50-5.49) | +++ (+++ = pIC50 ≥5.50) |  |  |
| Cc1ccccc1S(=O)(=O)Nc1cccc2cnccc12 [Compound 27] | ++ (++ = pIC50 4.50-5.49) | +++ (+++ = pIC50 ≥5.50) |  |  |
| CN1CCOc2cc(S(=O)(=O)Nc3cccc4cnccc34)ccc21 [Compound 28] |  |  | 3.24 to 31.6 | ≤ 3.16 |
| O=S(=O)(Nc1cccc2cnccc12)c1ccc(Cl)s1 [Compound 29] | ++ (++ = pIC50 4.50-5.49) | ++ (++ = pIC50 4.50-5.49) |  |  |

| SMILES | SKOV3 Kynurenine cell based assay pIC50 (IDO) | A172 Kynurenine cell based assay pIC50 (TDO) | IC50 (IDO) [µM] | IC50 (TDO) [µM] |
| --- | --- | --- | --- | --- |
| O=S(=O)(Nc1cccc2cnccc12)c1cccc2cccnc12 [Compound 30] | + (+ = pIC50 4.00-4.49) | +/− (+/− = pIC50 <4.00) |  |  |
| CC(C)Oc1ccc(S(=O)(=O)Nc2cccc3cnccc23)cc1 [Compound 31] | +++ (+++ = pIC50 ≥5.50) | +/− (+/− = pIC50 <4.00) |  |  |
| O=C(Nc1ccc2cnccc2c1)c1ccccc1 [Compound 32] | + (+ = pIC50 4.00-4.49) | +/− (+/− = pIC50 <4.00) |  |  |
| O=C(Nc1cncc2ccccc12)c1ccccc1 [Compound 33] | + (+ = pIC50 4.00-4.49) | +/− (+/− = pIC50 <4.00) |  |  |
| CS(=O)(=O)c1ccc(S(=O)(=O)Nc2cccc3cnccc23)cc1 [Compound 34] | + (+ = pIC50 4.00-4.49) | +/− (+/− = pIC50 <4.00) |  |  |
| COc1ccc(S(=O)(=O)Nc2cccc3cnccc23)cc1 [Compound 35] | ++ (++ = pIC50 4.50-5.49) | +++ (+++ = pIC50 ≥5.50) |  |  |
| N#Cc1ccccc1S(=O)(=O)Nc1cccc2cnccc12 [Compound 36] | + (+ = pIC50 4.00-4.49) | +/− (+/− = pIC50 <4.00) |  |  |
| CC(C)S(=O)(=O)Nc1cccc2cnccc12 [Compound 37] | +/− (+/− = pIC50 <4.00) | + (+ = pIC50 4.00-4.49) |  |  |
| O=S(=O)(Nc1cncc2ccccc12)c1ccccc1 [Compound 38] | + (+ = pIC50 4.00-4.49) | + (+ = pIC50 4.00-4.49) |  |  |
| O=S(=O)(Nc1ccc2cnccc2c1)c1ccccc1 [Compound 39] | + (+ = pIC50 4.00-4.49) | +/− (+/− = pIC50 <4.00) |  |  |
| Nc1nccc2c(NS(=O)(=O)c3ccccc3)cccc12 [Compound 40] | + (+ = pIC50 4.00-4.49) | + (+ = pIC50 4.00-4.49) |  |  |
| CC(=O)Nc1cc2c(NS(=O)(=O)c3ccccc3)cccc2cn1 [Compound 41] | + (+ = pIC50 4.00-4.49) | +/− (+/− = pIC50 <4.00) |  |  |
| CN(c1ccccc1)S(=O)(=O)c1cccc2cnccc12 [Compound 42] | + (+ = pIC50 4.00-4.49) | + (+ = pIC50 4.00-4.49) |  |  |
| O=C(Nc1ccccc1)c1cccc2cnccc12 [Compound 43] | + (+ = pIC50 4.00-4.49) | +/− (+/− = pIC50 <4.00) |  |  |
| O=S(=O)(Nc1ccccc1)c1cccc2cnccc12 [Compound 44] | ++ (++ = pIC50 4.50-5.49) | + (+ = pIC50 4.00-4.49) |  |  |
| CS(=O)(=O)N1CCN(c2cccc3cnccc23)CC1 [Compound 45, 5-(4-(methylsulfonyl)piperazin-1-yl)isoquinoline] |  |  | 32.4 to 100 | > 100 |
| O=S(=O)(Nc1ccc(Cl)cc1)c1cccc2cnccc12 [Compound 46] | ++ (++ = pIC50 4.50-5.49) | + (+ = pIC50 4.00-4.49) |  |  |
| O=S(=O)(Nc1ccc(-c2ccccc2)cc1)c1cccc2cnccc12 [Compound 47] | ++ (++ = pIC50 4.50-5.49) | ++ (++ = pIC50 4.50-5.49) |  |  |
| CC(=O)N1CCN(c2cccc3cnccc23)CC1 [Compound 48] | + (+ = pIC50 4.00-4.49) | +/− (+/− = pIC50 <4.00) |  |  |
